Test: Relaxivity values of some known compounds for MRI (Table I)
Assay type: physicochemical
Settings: 0.47 T, 25° C., pH 7; for r1p HSA 4%: HSA 4% in NaCl 0.9%
Source text: As mentioned above, pSLNs usually show very high relaxivity in physiological medium, higher than values typically found in non-derivatized hydrophilic gadolinium complexes, in particular when formulated in SLNs, as better detailed in the experimental part for some representative compounds. As an example, relaxivity values for some Gd(III)complexes are indicated below, where values measured in physiologic conditions refer to those in obtained HSA 4% in NaCl 0.9%.

SMILES	r1p HSA 4% [mM⁻¹ s⁻¹]	r1p Human plasma (HP) [mM⁻¹ s⁻¹]	r1p Water [mM⁻¹ s⁻¹]
CC(O)CN1CCN(CC(=O)[O-])CCN(CC(=O)[O-])CCN(CC(=O)[O-])CC1.[Gd+3] (stereo not drawn) [Gd-HP-DO3A, Gadoteridol[10-(2-hydroxyprop-1-yl) -1,4,7,10-tetraazacyclododecane-1,4,7-triacetate(3-)] gadolinium]	3.85	4.80	3.32
O=C([O-])CN1CCN(CC(=O)[O-])CCN([C@H](CO)[C@H](O)CO)CCN(CC(=O)[O-])CC1.[Gd+3] (racemic) [Gd-BT-DO3A, Gadobutrol]	4.31	5.76	3.75
C[NH2+]C[C@H](O)[C@@H](O)[C@H](O)[C@H](O)CO.O=C([O-])CN1CCN(CC(=O)[O-])CCN(CC(=O)[O-])CCN(CC(=O)[O-])CC1.[Gd+3] [Gd-DOTA, Gadoterato meglumine [[1,4,7,10-tetraazacyclododecane-1,4,7,10-tetraacetate (4-)] gadolinate (1-)] meglumine]	4.11	4.51	3.61
